Test systems include A549 NSCLC; DU-145 prostate; HOP-62 NSCLC; HS 578T breast; IGROV1 ovarian; M14 melanoma; MCF7 breast; MDA-MB-435; MDA-N; NCI/ADR-RES ovarian; OVCAR-4 ovarian; OVCAR-5 ovarian; OVCAR-8 ovarian; PC-3 prostate; RPMI-8226 leukemia; SK-MEL-2 melanoma; SK-MEL-28 melanoma; SNB-75 CNS; U251 CNS; SR leukemia.
Assay in all cases: NCI tumour cell line growth inhibition, 48 h

Molecules are shown by their SMILES.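 Cells were grown in 96-well plates and exposed to each compound for 48 hours at five concentrations; endpoints were interpolated linearly between bracketing concentrations, or set to the highest concentration if not reached. At the TGI there is no net growth.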 Bounds are passed on as bounds.

With `Cc1cccc2c(=O)c3c(O)cc(O)cc3[nH]c12`, the TGI in the assay on A549 NSCLC, in the assay with DU-145 prostate, in the assay with HOP-62 NSCLC, with HS 578T breast, in the assay with IGROV1 ovarian and with M14 melanoma was > 10 µM each time. The TGI in the assay with MCF7 breast, in the assay on MDA-MB-435, with MDA-N, in the assay with NCI/ADR-RES ovarian, in the assay on OVCAR-4 ovarian and in the assay with OVCAR-5 ovarian was > 10 µM in each case. The TGI in the assay with OVCAR-8 ovarian, in the assay on PC-3 prostate, in the assay with RPMI-8226 leukemia, with SK-MEL-2 melanoma, with SK-MEL-28 melanoma and in the assay on SNB-75 CNS was > 10 µM throughout. Further, the TGI in the assay with U251 CNS is > 10 µM.

With `c1cc(CSP234N5CCN2CCN3CCN4CC5)ccc1CSP123N4CCN1CCN2CCN3CC4`, the TGI in the assay on A549 NSCLC, in the assay with DU-145 prostate, with HOP-62 NSCLC, in the assay with HS 578T breast, in the assay with IGROV1 ovarian and in the assay on M14 melanoma was > 100 µM in each case. The TGI in the assay with MCF7 breast, with MDA-MB-435, in the assay on MDA-N, in the assay on NCI/ADR-RES ovarian, with OVCAR-4 ovarian and with OVCAR-5 ovarian was > 100 µM each time. In addition, the TGI with OVCAR-8 ovarian is > 100 µM; with PC-3 prostate it was > 100 µM; in the assay on RPMI-8226 leukemia it was 84.6 µM; in the assay on SK-MEL-2 melanoma it was > 100 µM; in the assay on SK-MEL-28 melanoma, > 100 µM; in the assay with SNB-75 CNS, > 100 µM. The TGI in the assay on U251 CNS is > 100 µM.

For the compound `CC(C)C1OC2(C)OC(=N)C1(C#N)C(C#N)(C#N)C2C` (configuration not stated), the TGI in the assay on A549 NSCLC was > 100 µM; in the assay with DU-145 prostate, > 100 µM; in the assay with HS 578T breast, 69.4 µM; in the assay on M14 melanoma it was 30.5 µM; in the assay on MCF7 breast, 41.7 µM; with MDA-MB-435 it was > 100 µM. For the same compound, the TGI in the assay with MDA-N was 29.8 µM; in the assay with NCI/ADR-RES ovarian, > 100 µM; with OVCAR-5 ovarian it was 71.1 µM; in the assay on OVCAR-8 ovarian it was 79.5 µM; in the assay with PC-3 prostate, > 100 µM; in the assay on SK-MEL-2 melanoma it was 67.7 µM. Also, the TGI in the assay with SK-MEL-28 melanoma was > 100 µM; with SNB-75 CNS, > 100 µM; with U251 CNS it was 65.7 µM.

On to `Cc1ccccc1NC(=O)C(=O)CC(=O)c1sc(Nc2ccccc2[N+](=O)[O-])nc1C`, for which the TGI in the assay on A549 NSCLC was > 100 µM; in the assay with DU-145 prostate, > 100 µM; in the assay with HOP-62 NSCLC it was 58.1 µM; with HS 578T breast, > 100 µM; with IGROV1 ovarian it was > 100 µM; in the assay with M14 melanoma it was > 100 µM. Further, the TGI with MCF7 breast is 70.3 µM; in the assay with MDA-MB-435 it was > 100 µM; in the assay on MDA-N it was > 100 µM; in the assay on NCI/ADR-RES ovarian it was > 100 µM; with OVCAR-4 ovarian, 52.9 µM; in the assay on OVCAR-5 ovarian, > 100 µM. Besides, the TGI was > 100 µM in the assay on OVCAR-8 ovarian; > 100 µM in the assay on PC-3 prostate; > 100 µM with RPMI-8226 leukemia; > 100 µM in the assay with SK-MEL-2 melanoma; 82.8 µM in the assay on SK-MEL-28 melanoma; > 100 µM with U251 CNS.

For `Cc1nc2ccc(F)cc2c2c1CCO2`, the TGI with A549 NSCLC, in the assay on DU-145 prostate, in the assay on HS 578T breast, in the assay on IGROV1 ovarian, in the assay with M14 melanoma and in the assay with MDA-MB-435 was > 100 µM in each case. Further, the TGI in the assay with MDA-N, with NCI/ADR-RES ovarian, in the assay on OVCAR-4 ovarian, in the assay with OVCAR-5 ovarian, with OVCAR-8 ovarian and in the assay on RPMI-8226 leukemia was > 100 µM each time. Also, the TGI in the assay with SK-MEL-2 melanoma, in the assay with SK-MEL-28 melanoma, with SNB-75 CNS, in the assay with SR leukemia and in the assay on U251 CNS was > 100 µM each time.

Consider `O=C1CCCCC1=C(I)I`, for which the TGI with A549 NSCLC is > 100 µM; in the assay with DU-145 prostate, 34.1 µM; with HOP-62 NSCLC it was 57.5 µM; in the assay on HS 578T breast it was > 100 µM; in the assay with IGROV1 ovarian, 30.4 µM; with M14 melanoma it was 32.3 µM. The TGI with MDA-MB-435 is 46.8 µM; in the assay on MDA-N, 31.3 µM; in the assay with OVCAR-4 ovarian it was 24.5 µM; in the assay on OVCAR-5 ovarian, 31.6 µM; with OVCAR-8 ovarian, > 100 µM; in the assay on PC-3 prostate it was 30.9 µM. The TGI in the assay with RPMI-8226 leukemia is 53.4 µM; in the assay on SK-MEL-2 melanoma it was 31.8 µM; in the assay on SK-MEL-28 melanoma, 31.8 µM; in the assay with SNB-75 CNS, 47.1 µM; in the assay on SR leukemia it was > 100 µM; with U251 CNS, 30.2 µM.

Consider `OCC1OC(NCCNCCNC2OC(CO)C(O)C(O)C2O)C(O)C(O)C1O` (configuration not stated), for which the TGI in the assay with A549 NSCLC, in the assay on DU-145 prostate, in the assay on HOP-62 NSCLC, in the assay with HS 578T breast, with IGROV1 ovarian and with M14 melanoma was > 100 µM in each case. For the same compound, the TGI in the assay with MCF7 breast, in the assay on MDA-N, with NCI/ADR-RES ovarian, in the assay on OVCAR-5 ovarian, in the assay with OVCAR-8 ovarian and in the assay with PC-3 prostate was > 100 µM in each case. The TGI in the assay with RPMI-8226 leukemia, with SK-MEL-2 melanoma, with SK-MEL-28 melanoma, in the assay with SNB-75 CNS, with SR leukemia and with U251 CNS was > 100 µM each time.

Regarding `CCCCn1cnnc1NS(=O)(=O)c1cc(C)c(Cl)cc1SCC(=O)O`, the TGI in the assay with A549 NSCLC, with DU-145 prostate, in the assay on HOP-62 NSCLC, in the assay with HS 578T breast, with IGROV1 ovarian and in the assay with M14 melanoma was > 10 µM each time. The TGI in the assay on MDA-MB-435, in the assay on MDA-N, in the assay with NCI/ADR-RES ovarian, with OVCAR-4 ovarian, in the assay on OVCAR-5 ovarian and with OVCAR-8 ovarian was > 10 µM in each case. Moreover, the TGI in the assay with PC-3 prostate, in the assay on RPMI-8226 leukemia, with SK-MEL-2 melanoma, with SK-MEL-28 melanoma, with SNB-75 CNS and with U251 CNS was > 10 µM throughout.

Source of the values: PubChem BioAssay (NCI).
